Data reported in patent publication US10357481B2 (MERCK SHARP & DOHME CORP., priority 2015, dated 2019).

Target: T1, human PDE2A1 (Homo sapiens, UniProt O00408)
T1 construct: GST; purchased BPS Bioscience (San Diego, Calif.) 60020; host or cells: insect cells
Assay: IMAP FP PDE selectivity panel, human PDE2A1
Format: biochemical
Settings: Lab B; read-out: Human PDE2 Ki (nM) Lab B
Method in brief: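 Human PDE2A1 tested alongside PDE1–11 by IMAP fluorescence polarization at room temperature. Substrate was 50 nM FAM-cAMP plus 1000 nM cGMP, buffer pH 7.2 with MgCl2 and DTT, enzyme set for 20% conversion. Ten 3-fold compound dilutions; 60 min reaction, then IMAP binding solution, 1 h, parallel/perpendicular fluorescence read.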

T1 sequence (O00408 1-920 isoform O00408-2): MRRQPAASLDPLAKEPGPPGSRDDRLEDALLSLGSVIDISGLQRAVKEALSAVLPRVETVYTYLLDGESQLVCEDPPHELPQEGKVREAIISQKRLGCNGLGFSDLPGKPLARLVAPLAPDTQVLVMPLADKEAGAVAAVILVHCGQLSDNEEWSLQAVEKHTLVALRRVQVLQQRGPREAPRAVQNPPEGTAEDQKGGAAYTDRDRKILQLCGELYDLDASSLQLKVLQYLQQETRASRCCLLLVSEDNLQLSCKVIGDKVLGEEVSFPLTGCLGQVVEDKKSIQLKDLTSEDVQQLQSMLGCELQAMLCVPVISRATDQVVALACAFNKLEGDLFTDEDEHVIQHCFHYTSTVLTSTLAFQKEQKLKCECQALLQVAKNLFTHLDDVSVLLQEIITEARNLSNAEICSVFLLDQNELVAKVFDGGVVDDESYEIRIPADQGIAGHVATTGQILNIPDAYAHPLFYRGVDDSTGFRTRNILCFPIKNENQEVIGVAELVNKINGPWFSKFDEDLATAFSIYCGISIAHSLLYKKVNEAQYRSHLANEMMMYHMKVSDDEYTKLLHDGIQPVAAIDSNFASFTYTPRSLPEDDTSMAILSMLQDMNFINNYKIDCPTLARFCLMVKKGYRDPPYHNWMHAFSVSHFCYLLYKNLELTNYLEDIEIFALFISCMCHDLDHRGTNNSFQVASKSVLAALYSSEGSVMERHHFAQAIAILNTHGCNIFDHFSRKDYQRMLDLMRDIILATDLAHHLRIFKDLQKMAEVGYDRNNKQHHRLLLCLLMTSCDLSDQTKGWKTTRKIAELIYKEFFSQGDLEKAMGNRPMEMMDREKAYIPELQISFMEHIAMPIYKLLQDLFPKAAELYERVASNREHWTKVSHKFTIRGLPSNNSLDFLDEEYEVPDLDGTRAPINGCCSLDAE

Row | SMILES | Ki [nM]
1 | Cc1cc(NC2(c3ccc(C(F)(F)F)c(F)c3)CC2)n2nc(CF)nc2n1 [Example 197, N-(1-(3-Fluoro-4-(trifluoromethyl)phenyl)cyclopropyl)-2-(fluoromethyl)-5-methyl-[1,2,4]triazolo [1,5-a]pyrimidin-7-amine] | 80
2 | Cc1cc(NC(c2ccc(C(F)(F)F)cc2Cl)C(C)(C)O)n2ncnc2n1 (single isomer, unassigned) [Example 104, (1S or R)-1-[2-Chloro-4-(trifluoromethyl)phenyl]-2-methyl-1-[(5-methyl[1,2,4]triazolo[1,5-a]pyrimidin-7-yl)amino]propan-2-ol] | ~2780
3 | Cc1cc(N[C@@H](c2ccc(C(F)(F)F)c(F)c2)C(C)C)n2ncnc2n1 [Example 20, N-{(1R)-1-[3-Fluoro-4-(trifluoromethyl)phenyl]-2-methylpropyl}-5-methyl[1,2,4]triazolo[1,5-a] pyrimidin-7-amine] | 28
4 | Cc1cc(NC(c2ccc(C(F)(F)F)nc2)C(C)(C)O)n2ncnc2n1 (single isomer, unassigned) [Example 225, (R)- or (S)-2-Methyl-1-(5-methyl-[1,2,4]triazolo [1,5-a]pyrimidin-7-ylamino)-1-(6-(trifluoromethyl)pyridin-3-yl) propan-2-ol] | 258
5 | Cc1cc(N[C@@H](c2ccc(OC(F)(F)F)cc2Cl)C(C)(C)O)n2ncnc2n1 [Example 100, (1S)-1-[2-Chloro-4-(trifluoromethoxy)phenyl]-2-methyl-1-[(5-methyl[1,2,4]triazolo[1,5-a]pyrimidin-7-yl)amino]propan-2-ol] | 4.3
6 | Cc1cc(N[C@H](c2ccc(C(F)(F)F)c(F)c2)C(C)(C)O)nc2ncnn12 (single isomer, unassigned) [Example 291] | 183
7 | CN(C)c1cc(N[C@@H](c2ccc(C(F)(F)F)c(F)c2)C(C)(C)O)n2ncnc2n1 (single isomer, unassigned) [Example 244] | 377
8 | Cc1cc(NC(c2ccc(OC(F)(F)F)c(F)c2)C(C)(C)CO)n2ncnc2n1 (single isomer, unassigned) [Example 232, (S or S)-3-(3-fluoro-4-(trifluoromethoxy)phenyl)-2,2-dimethyl-3-(5-methyl-[1,2,4]triazolo[1,5-a]pyrimidin-7-ylamino)propan-1-ol] | > 2960
9 | CC(C)(C)c1cc(NC(c2ccc(S(F)(F)(F)(F)F)cc2)C(C)(C)O)n2ncnc2n1 (single isomer, unassigned) [Example 151, (1R or S)-1-[(5-tert-Butyl[1,2,4]triazolol[1,5-a]pyrimidin-7-yl)amino]-2-methyl-1-[4-(pentafluoro-λ^6-sulfanyl)phenyl] propan-2-ol] | > 2960
10 | Cc1cc(NC(c2ccc(C3(C)CC3)cc2)C(C)(C)O)n2ncnc2n1 (single isomer, unassigned) [Example 120, (1S or R)-2-Methyl-1-[4-(1-methyl-cyclopropyl)phenyl]-1-[(5-methyl[1,2,4]triazolo[1,5-a]pyrimidin-7-yl)amino]propan-2-ol] | > 2960
11 | C[C@@H](Nc1cc(CO)cc2ncnn12)c1ccc(C(F)(F)F)c(F)c1 [Example 272, [5-({(1R)-1-[3-Fluoro4-(trifluoromethyl)phenyl]ethyl}amino)[1,2,4]triazolo[1,5-a]pyridin-7-yl]methanol] | 121
12 | CC(C)(O)C(Nc1cc(C(F)(F)F)nc2ncnn12)c1ccc(CC(F)(F)F)cc1 (single isomer, unassigned) [Example 170, (1R or S)-2-Methyl-1-[4-(2,2,2-trifluoroethyl)phenyl]-1-{[5-(trifluoromethyl) [1,2,4]triazolo [1,5-a]pyrimidin-7-yl]amino} propan-2-ol] | > 2960
13 | CC(C)(C)c1cc(NC2(c3ccc(C(F)(F)F)c(F)c3)CC2)n2ncnc2n1 [Example 73] | 72
14 | Cc1cc(NC(c2ccc(C(F)(F)F)cc2F)C(C)(C)O)n2ncnc2n1 (single isomer, unassigned) [Example 114, (1S or R)-1-[2-Fluoro-4-(trifluoromethyl)phenyl]-2-methyl-1-[(5-methyl [1,2,4]triazolo [1,5-a]pyrimidin-7-yl)amino] propan-2-ol] | > 2960
15 | CC(C)(O)C(Nc1cc(C(F)(F)F)nc2ncnn12)c1ccc2c(c1)OC(F)(F)O2 (single isomer, unassigned) [Example 168, (1R or S)-1-(2,2-Difluoro-1,3-benzodioxol-5-yl)-2-methyl-1-{[5-(trifluoromethyl) [1,2,4]triazolo [1,5-a]pyrimidin-7-yl]amino} propan-2-ol] | > 2960
16 | Cc1cc(N[C@@H](c2ccc(S(F)(F)(F)(F)F)cc2)C2(C)CC2)n2ncnc2n1 [Example 44, 5-Methyl-N-{(R)-(1-methylcyclopropyl)[4-(pentafluoro-λ^6-sulfanyl)phenyl]methyl} [1,2,4]triazolo[1,5-a]pyrimidin-7-amine] | 18
17 | CC(C)(C)c1ccc(C(Nc2cc(C(F)(F)F)nc3ncnn23)C(C)(C)O)cc1 (single isomer, unassigned) [Example 162, (1R or S)-1-(4-tert-Butylphenyl)-2-methyl-1-{[5-(trifluoromethyl) [1,2,4]triazolo [1,5-a]pyrimidin-7-yl]amino} propan-2-ol] | ~2050
18 | CC(C)(O)C(Nc1cc(C(F)F)nc2ncnn12)c1ccc(OC(F)F)cc1Cl (single isomer, unassigned) [Example 183, (1S or R)-[2-Chloro-4-(difluoromethoxy)phenyl]-1-{[5-(difluoromethyl) [1,2,4]triazolo [1,5-a]pyrimidin-7-yl]amino}-2-methylpropan-2-ol] | 15
19 | CC(C)(O)C(Nc1cc(C(F)F)nc2ncnn12)c1ccc(OC(F)F)cc1F (single isomer, unassigned) [Example 181] | 32
20 | CC(C)(O)[C@@H](Nc1cc(CO)cc2ncnn12)c1ccc(OC(F)(F)F)cc1F [Example 273, (1S)-1-[2-Fluoro-4-(trifluoromethoxy)phenyl]-1-{[7-(hydroxymethyl)[1,2,4]triazolo [1,5-a]pyridin-5-yl]amino}-2-methylpropan-2-ol] | 102
21 | C[C@@H](Nc1cncc2ncnn12)c1ccc(C(F)(F)F)cc1 [Example 288] | 221
22 | Cc1cc(NC2(c3ccc(C(F)(F)F)c(F)c3)CC2)n2nc(C(F)F)nc2n1 [Example 201, 2-(Difluoromethyl)-N-(1-(3-fluoro-4-(trifluoromethyl)phenyl)cyclopropyl)-5-methyl-[1,2,4]triazolo [1,5-a]pyrimidin-7-amine] | 131
23 | Cc1cc(NC(C)(C)c2ccc(C(F)(F)F)cc2F)n2ncnc2n1 [Example 52, N-{1-[2-Fluoro-4-(trifluoromethyl)phenyl]-1-methylethyl}-5-methyl [1,2,4]triazolo[1,5-a]pyrimidin-7-amine] | 78
24 | CCC(O)(CC)C(Nc1cc(C)nc2ncnn12)c1ccc(C(F)(F)F)c(F)c1 (single isomer, unassigned) [Example 216, (S)- or (R)-3-((3-Fluoro-4-(trifluoromethyl)phenyl)(5-methyl-[1,2,4]triazolo [1,5-a]pyrimidin-7-ylamino)methyl) pentan-3-ol] | 134
25 | Cc1cc(N[C@H](C)c2cc(F)c(C(F)(F)F)cc2F)n2ncnc2n1 [Example 6, N-{(1R)-1-[2,5-Difluoro-4-(trifluoromethyl)phenyl]ethyl}-5-methyl[1,2,4]triazolo[1,5-a] pyrimidin-7-amine] | 482
